Data on 31 molecules can be found in patent US20260062412A1, “NITROGEN-CONTAINING HETEROCYCLIC COMPOUND HAVING MYT1 INHIBITORY ACTIVITY” (CHUGAI SEIYAKU KABUSHIKI KAISHA, priority 2023, published 2026).

Structures can show the parent of a compound that is named as a salt.

Test [1] deals with LU65. In words: Cytotoxicity test with pemetrexed upon addition of each example compound (CellTiter-Glo). Conditions: combination with pemetrexed, LU65 cells, 7 days; maximum value, at the MYT1 inhibitor and pemetrexed concentrations. The class given is cell-based, human. The protocol: LU65 (received from human tissue bank (JCRB Cell Bank)) was used in the evaluation of the present invention. LU65 is a lung cancer cell line having a truncated deletion mutation of S82* in RB1 gene (see Nature. 2019 May; 569(7757): 503-508. (Non Patent Literature 22)), in which the function of RB1 is decreased. The cell culture was carried out using RPMI-1640 (manufactured by SIGMA) containing 10% FBS (manufactured by SIGMA).
Each pemetrexed (manufactured by Tokyo Kasei Kogyo Co., Ltd.) and each example compound of each concentration were diluted using a DMSO solution, and 0.04 μL of each of series of dilution and DMSO was added to each well of cell culture plate using Echo 555 Liquid Handler (manufactured by Beckman Coulter Inc.). 1000 LU65 cells ([…]) were added to each well, which was cultured at 37° C. in a 5% CO2 incubator for 7 days. Intracellular ATP level which is a cell survival marker was measured and used in the monitoring of cell number. After culturing, 20 μL of CellTiter-Glo (registered trademark) 2.0 (manufactured by Promega) was added to each well, and the emission intensity was measured using Multimode Plate Reader En Vision (registered trademark) Xcite (manufactured by PerkinElmer). The cell survival rate under each condition was calculated by setting the value obtained by subtracting the luminescence of the cell unseeded well from the luminescence of the DMSO-added well as 100%, and calculating the proportion of a value obtained by subtracting the luminescence of the cell unseeded well from the luminescence detected at each well.
In addition, the cytotoxic activity under each condition was calculated by subtracting the survival rate in a combination of pemetrexed of each treatment concentration and each example compound of each treatment concentration, from 100%.
A general note: Cellular ATP, detected with luciferase, serves as a proxy for viable cell number.

Test [2] has as its target MYT1 protein (Homo sapiens (Human), UniProt Q99640). In words: Test for binding to ATP binding site of MYT1 (Kinase Tracer 178 / Eu-Anti-GST antibody TR-FRET). As to conditions: ATP binding site of MYT1, 30 minutes at room temperature.

MYT1 protein, sequence (Q99640 whole entry): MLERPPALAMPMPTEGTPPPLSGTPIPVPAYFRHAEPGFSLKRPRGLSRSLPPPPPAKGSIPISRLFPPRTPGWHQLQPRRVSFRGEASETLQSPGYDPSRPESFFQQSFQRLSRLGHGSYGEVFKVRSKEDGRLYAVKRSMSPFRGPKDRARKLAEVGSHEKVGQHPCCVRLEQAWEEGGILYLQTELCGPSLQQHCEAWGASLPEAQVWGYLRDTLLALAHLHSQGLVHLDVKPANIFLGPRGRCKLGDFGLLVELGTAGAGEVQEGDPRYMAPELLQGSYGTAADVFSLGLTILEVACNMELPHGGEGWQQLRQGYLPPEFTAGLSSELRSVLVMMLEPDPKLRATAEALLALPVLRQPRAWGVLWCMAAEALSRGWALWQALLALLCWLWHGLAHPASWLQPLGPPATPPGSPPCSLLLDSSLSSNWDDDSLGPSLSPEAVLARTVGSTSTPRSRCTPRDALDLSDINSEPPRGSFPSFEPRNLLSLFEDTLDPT

A word on the IC50: it is the concentration that gives 50% inhibition. With `N#C[C@H]1C[C@H](Oc2cc3c(-c4ccc(Cl)c5[nH]ncc45)c(N)c(=O)[nH]c3cc2Cl)C1` [Compound A12, (1r,3r)-3-[[3-Amino-7-chloro-4-(7-chloro-1H-indazol-4-yl)-2-oxo-1H-quinolin-6-yl]oxy]cyclobutane-1-carbonitrile], in test [1], the “Bliss Score (Max)” value is listed as 61% and the “HSA Score (MAX)” value amounted to 70%. This molecule also had a half-inhibitory concentration (IC50) in test [2] of 2.6 nM.
For `COc1cc2c(-c3ccc(F)c4[nH]ncc34)c(N)c(=O)[nH]c2c2cc(F)cnc12` [Compound F2, 3-Amino-9-fluoro-4-(7-fluoro-1H-indazol-4-yl)-6-methoxy-1H-1,7-phenanthrolin-2-one], in test [1], the “Bliss Score (Max)” value came out at 86% and the “HSA Score (MAX)” value amounted to 83%. In test [2], the IC50 was determined as 1.6 nM.
`Cc1cc2c(-c3ccc(F)c4[nH]ncc34)c(N)c(=O)[nH]c2c2sncc12` [Compound H2, 7-Amino-6-(7-fluoro-1H-indazol-4-yl)-4-methyl-9H-[1.2]thiazolo[4,5-h]quinolin-8-one] yielded an IC50 in test [2] of 1.8 nM.
`Nc1c(-c2ccc(F)c3[nH]ncc23)c2cc(C3CC3)c3cnsc3c2[nH]c1=O` [Compound H3, 7-Amino-4-cyclopropyl-6-(7-fluoro-1H-indazol-4-yl)-9H-[1,2]thiazolo[4,5-h]quinolin-8-one]: in test [1], the “Bliss Score (Max)” value worked out at 61% and the “HSA Score (MAX)” value turned out to be 61%. Also, the half-maximal inhibitory concentration (IC50) in test [2] was 2.7 nM.
In test [2], `Cn1ncc2c(Br)cc3c(-c4ccc(F)c5[nH]ncc45)c(N)c(=O)[nH]c3c21` [Compound I1, 7-Amino-4-bromo-6-(7-fluoro-1H-indazol-4-yl)-1-methyl-9H-pyrazolo[4,3-h]quinolin-8-one] showed an IC50 of 33 nM.
`Cc1cc2c(-c3ccc(F)c4[nH]ncc34)c(N)c(=O)[nH]c2c2c1cnn2C` [Compound I2, 7-Amino-6-(7-fluoro-1H-indazol-4-yl)-1,4-dimethyl-9H-pyrazolo[4,3-h]quinolin-8-one] returned a half-inhibitory concentration (IC50) in test [2] of 16 nM.
Consider `Cn1ncc2c(C3CC3)cc3c(-c4ccc(F)c5[nH]ncc45)c(N)c(=O)[nH]c3c21` [Compound I3, 7-Amino-4-cyclopropyl-6-(7-fluoro-1H-indazol-4-yl)-1-methyl-9H-pyrazolo[4,3-h]quinolin-8-one], for which the IC50 in test [2] was found to be 8 nM.
`Nc1c(-c2ccc(F)c3[nH]ncc23)c2cc(Br)c3cncnc3c2[nH]c1=O` [Compound J1, 8-Amino-5-bromo-7-(7-fluoro-1H-indazol-4-yl)-10H-pyrido[3,2-h]quinazolin-9-one] displayed an IC50 in test [2] of 7.3 nM.
In test [2], `Cc1cc2c(-c3ccc(F)c4[nH]ncc34)c(N)c(=O)[nH]c2c2ncncc12` [Compound J2, 8-Amino-7-(7-fluoro-1H-indazol-4-yl)-5-methyl-10H-pyrido[3,2-h]quinazolin-9-one] displayed an IC50 of 3.1 nM.
On to `Nc1c(-c2ccc(F)c3[nH]ncc23)c2cc(C3CC3)c3cncnc3c2[nH]c1=O` [Compound J3, 8-Amino-5-cyclopropyl-7-(7-fluoro-1H-indazol-4-yl)-10H-pyrido[3,2-h]quinazolin-9-one], for which the IC50 in test [2] was 3.5 nM.
The same measure, in the same setting: in the case of `Nc1c(-c2ccc(F)c3[nH]ncc23)c2cc(Br)c3ncsc3c2[nH]c1=O` [Compound K1, 7-Amino-4-bromo-6-(7-fluoro-1H-indazol-4-yl)-9H-[1,3]thiazolo[4,5-h]quinolin-8-one] it was 1.7 nM.
Molecule `Cc1cc2c(-c3ccc(F)c4[nH]ncc34)c(N)c(=O)[nH]c2c2scnc12` [Compound K2, 7-Amino-6-(7-fluoro-1H-indazol-4-yl)-4-methyl-9H-[1,3]thiazolo[4,5-h]quinolin-8-one] gave an IC50 in test [2] of 1.2 nM. This IC50 and that of the molecule before are within 1.5-fold of each other.
For `Nc1c(-c2ccc(F)c3[nH]ncc23)c2cc(C3CC3)c3ncsc3c2[nH]c1=O` [Compound K3, 7-Amino-4-cyclopropyl-6-(7-fluoro-1H-indazol-4-yl)-9H-[1,3]thiazolo[4,5-h]quinolin-8-one], the IC50 in test [2] was found to be 50 nM.
As to `Cc1nc2c(C)cc3c(-c4ccc(F)c5[nH]ncc45)c(N)c(=O)[nH]c3c2s1` [Compound K4, 7-Amino-6-(7-fluoro-1H-indazol-4-yl)-2,4-dimethyl-9H-[1,3]thiazolo[4,5-h]quinolin-8-one], in test [1], the “Bliss Score (Max)” value is 56% and the “HSA Score (MAX)” value was 66%. In test [2], this molecule registered a concentration for half-maximal inhibition (IC50) of 2.7 nM.
In test [2], `Nc1c(-c2ccc(F)c3[nH]ncc23)c2cc(Br)c3ccsc3c2[nH]c1=O` [Compound L1, 7-Amino-4-bromo-6-(7-fluoro-1H-indazol-4-yl)-9H-thieno[3,2-h]quinolin-8-one] gave an IC50 of 3 nM.
In turn, `Cc1cc2c(-c3ccc(F)c4[nH]ncc34)c(N)c(=O)[nH]c2c2sccc12` [Compound L2, 7-Amino-6-(7-fluoro-1H-indazol-4-yl)-4-methyl-9H-thieno[3,2-h]quinolin-8-one] returned a 50% inhibitory concentration (IC50) in test [2] of 1.8 nM.
Take `Cn1cnc2c3[nH]c(=O)c(N)c(-c4ccc(F)c5[nH]ncc45)c3cc(Br)c21` [Compound M1, 7-Amino-4-bromo-6-(7-fluoro-1H-indazol-4-yl)-3-methyl-9H-imidazo[4,5-h]quinolin-8-one]: the IC50 in test [2] came out at 10 nM.
For the molecule `Cc1cc2c(-c3ccc(F)c4[nH]ncc34)c(N)c(=O)[nH]c2c2ncn(C)c12` [Compound M2, 7-Amino-6-(7-fluoro-1H-indazol-4-yl)-3,4-dimethyl-9H-imidazo[4,5-h]quinolin-8-one], the IC50 in test [2] turned out to be 14 nM.
Still for that read-out and setting: in the case of `Cn1cnc2c3[nH]c(=O)c(N)c(-c4ccc(F)c5[nH]ncc45)c3ccc21` [Compound M3, 7-Amino-6-(7-fluoro-1H-indazol-4-yl)-3-methyl-9H-imidazo[4,5-h]quinolin-8-one] it was 99 nM; in that of `Nc1c(-c2ccc(F)c3[nH]ncc23)c2cc(Br)c3scnc3c2[nH]c1=O` [Compound N1, 7-Amino-4-bromo-6-(7-fluoro-1H-indazol-4-yl)-9H-[1,3]thiazolo[5,4-h]quinolin-8-one], 5.3 nM; in that of `Cc1nccc2c1c(Br)cc1c(-c3ccc(F)c4[nH]ncc34)c(N)c(=O)[nH]c12` [Compound P2, 3-Amino-6-bromo-4-(7-fluoro-1H-indazol-4-yl)-7-methyl-1H-1,8-phenanthrolin-2-one], 13 nM.
As for `Nc1c(-c2ccc(F)c3[nH]ncc23)c2cc(Br)c3cnccc3c2[nH]c1=O` [Compound P3, 3-Amino-6-bromo-4-(7-fluoro-1H-indazol-4-yl)-1H-1,8-phenanthrolin-2-one], the IC50 in test [2] was 12 nM. The IC50 values of the last two molecules are within 1.5-fold of each other.
Still for that read-out and setting: the result for `Nc1c(-c2cccc(O)c2)c2ccc3cnccc3c2[nH]c1=O` [Compound P5, 3-Amino-4-(3-hydroxyphenyl)-1H-1,8-phenanthrolin-2-one; hydrobromide] reads 3.9 nM.
Regarding `Nc1c(-c2ccc(F)c3[nH]ncc23)c2cnc3ccccc3c2[nH]c1=O` [Compound R1, 3-Amino-4-(7-fluoro-1H-indazol-4-yl)-1H-benzo[h][1,6]naphthyridin-2-one], the IC50 in test [2] amounted to 3.4 nM.
The molecule `Cc1cc2c(nn1)c(Br)cc1c(-c3ccc(F)c4[nH]ncc34)c(N)c(=O)[nH]c12` [Compound S1, 3-Amino-6-bromo-4-(7-fluoro-1H-indazol-4-yl)-9-methyl-1H-pyrido[2,3-f]cinnolin-2-one] showed a half-maximal inhibitory concentration (IC50) in test [2] of 370 nM.
As to `COc1ccc2c(n1)c(OC)cc1c(-c3ccc(F)c4[nH]ncc34)c(N)c(=O)[nH]c12` [Compound T1, 3-Amino-4-(7-fluoro-1H-indazol-4-yl)-6,8-dimethoxy-1H-1,7-phenanthrolin-2-one], the IC50 in test [2] stood at 4.9 nM.
With `COc1ccc2c(n1)c(OC(C)C)cc1c(-c3ccc(F)c4[nH]ncc34)c(N)c(=O)[nH]c12` [Compound T2, 3-Amino-4-(7-fluoro-1H-indazol-4-yl)-8-methoxy-6-propan-2-yloxy-1H-1,7-phenanthrolin-2-one], the 50% inhibitory concentration (IC50) in test [2] amounted to 7.6 nM. This IC50 is about 1.6-fold higher than that of the molecule before.
`CCOc1cc2c(-c3ccc(F)c4[nH]ncc34)c(N)c(=O)[nH]c2c2ccc(OC)nc12` [Compound T3, 3-Amino-6-ethoxy-4-(7-fluoro-1H-indazol-4-yl)-8-methoxy-1H-1,7-phenanthrolin-2-one] registered a half-maximal inhibitory concentration (IC50) in test [2] of 6.1 nM.
`COc1cc2c(-c3ccc(F)c4[nH]ncc34)c(N)c(=O)[nH]c2c2ccc(=O)[nH]c12` [Compound T4, 3-Amino-4-(7-fluoro-1H-indazol-4-yl)-6-methoxy-1,7-dihydro-1,7-phenanthroline-2,8-dione] yielded a half-maximal inhibitory concentration (IC50) in test [2] of 3.2 nM.
For the molecule `CC(C)Oc1cc2c(-c3ccc(F)c4[nH]ncc34)c(N)c(=O)[nH]c2c2ccc(=O)[nH]c12` [Compound T5, 3-Amino-4-(7-fluoro-1H-indazol-4-yl)-6-propan-2-yloxy-1,7-dihydro-1,7-phenanthroline-2,8-dione], the IC50 in test [2] worked out at 3.5 nM. The IC50 values of the last two molecules are within 1.5-fold of each other.
In the case of `CCOc1cc2c(-c3ccc(F)c4[nH]ncc34)c(N)c(=O)[nH]c2c2ccc(=O)[nH]c12` [Compound T6, 3-Amino-6-ethoxy-4-(7-fluoro-1H-indazol-4-yl)-1,7-dihydro-1,7-phenanthroline-2,8-dione], the IC50 in test [2] was determined as 2.2 nM. Compared with the last molecule, the IC50 is about 1.6-fold lower.
